Active and inactive are the calls of the source. How the calls were made is not given here.
System: Vero E6 cytotoxicity, luminescence viability
Assay: PubChem AID 435015
Settings: at 20 µM; stronger effect = higher value

## CC(C)(C)NC(=O)C(c1cccnc1)N(C(=O)c1ccco1)c1ccc(C(C)(C)C)cc1 (stereo unspecified)
  inhibition: 23% (inactive)

Source: PubChem BioAssay AID435015 (The Scripps Research Institute Molecular Screening Center, 2010)
